Results from patent publication US20140296170A1, “PHARMACEUTICAL COMPOSITION FOR PREVENTION OR TREATMENT OF BONE DISEASES COMPRISING SPINASTEROL GLUCOSIDE DERIVATIVE” (Lifetree Biotech Co., Ltd., priority 2013, published 2014).

Tests used:
[1] = system: collagen-induced arthritis in DBA1/J mice; assay: Collagen-induced arthritis model in DBA1/J mice; assay type: in vivo; details: FIG. 1
[2] = system: cartilage of SD rats (osteoblast defected (OD) models); assay: Cartilage regeneration in osteoblast defected (OD) models; assay type: in vivo; details: 1 mg/kg orally once every two days for 4 weeks
Experimental: The cartilage regeneration activity of spinasterol glucoside derivatives were evaluated in osteoblast defected (OD) models which were widely used in study on the regeneration of degenerative articular cartilage. The cartilage of SD rats, at least 9 weeks of age, was destroyed by a […] drill, followed by suturing the muscle and lipid tissues so as to allow them to go about normal daily life. Then, 3-o-β-D-glucopyranosyl-spinasterol dissolved in distilled water was orally administered at a dose of 1 mg/kg once every two days for 4 weeks. Afterwards, the animals were sacrificed, and opened around the knee to take articular cartilage tissues, followed by decalcification for 4 weeks. The cartilage tissues thus softened were paraffinized, and dyed with Safran O solution to visualize the regeneration of the cartilage.

Compound: CC[C@H](/C=C/[C@@H](C)[C@H]1CC[C@H]2C3=CC[C@H]4C[C@@H](O[C@@H]5O[C@H](CO)[C@@H](O)[C@H](O)[C@H]5O)CC[C@]4(C)[C@H]3CC[C@]12C)C(C)C [3-o-β-D-glucopyranosyl-spinasterol]
- degree of collagen-induced arthritis (clinical severity by paw swelling, verified by micro-CT morphometry) ([1]; CII/CFA immunization, 10 μM/kg of weight three times a week for 28 days, observed 42 days later, compared to the positive control (CIA)): reduced in the degree of collagen-induced arthritis
- regeneration of cartilage at the worn joint ([1]; collagen-induced arthritis, 10 μM/kg three times a week for 28 days): showed regeneration of cartilage at the worn joint
- levels of chondrocytes ([2]; SD rats OD model): greatly increased levels
- levels of mast cells ([2]; SD rats OD model): greatly increased levels
- levels of mucin ([2]; SD rats OD model): greatly increased levels
- regeneration of cartilage tissues (Safran O staining) ([2]; SD rats, cartilage destroyed by drill, compared to the control (b), FIG. 2): significant regeneration of cartilage tissues
